Reference: ChEMBL document CHEMBL1201862, “PubChem BioAssay data set” (2004)
Where a name gives a salt, the structure may show the parent alone. Active and inactive are the calls of the source.

Assays:
P388/ADR = assay: cells; format: functional; conditions: Mus musculus
SN12K1 = assay: cells; format: functional; conditions: Homo sapiens
P388 = assay: cells; format: functional; conditions: Mus musculus
Aminopeptidase N = molecular target: T1, Aminopeptidase N (Plasmodium falciparum FcB1/Columbia, UniProt O96935); assay: P. falciparum M1AAP inhibitors, biochemical, fluorogenic H-Leu-NHMec substrate, 1536-well (AID 1445); parameters: species or system Plasmodium falciparum 3D7, 3D7
T1 sequence (O96935 whole entry): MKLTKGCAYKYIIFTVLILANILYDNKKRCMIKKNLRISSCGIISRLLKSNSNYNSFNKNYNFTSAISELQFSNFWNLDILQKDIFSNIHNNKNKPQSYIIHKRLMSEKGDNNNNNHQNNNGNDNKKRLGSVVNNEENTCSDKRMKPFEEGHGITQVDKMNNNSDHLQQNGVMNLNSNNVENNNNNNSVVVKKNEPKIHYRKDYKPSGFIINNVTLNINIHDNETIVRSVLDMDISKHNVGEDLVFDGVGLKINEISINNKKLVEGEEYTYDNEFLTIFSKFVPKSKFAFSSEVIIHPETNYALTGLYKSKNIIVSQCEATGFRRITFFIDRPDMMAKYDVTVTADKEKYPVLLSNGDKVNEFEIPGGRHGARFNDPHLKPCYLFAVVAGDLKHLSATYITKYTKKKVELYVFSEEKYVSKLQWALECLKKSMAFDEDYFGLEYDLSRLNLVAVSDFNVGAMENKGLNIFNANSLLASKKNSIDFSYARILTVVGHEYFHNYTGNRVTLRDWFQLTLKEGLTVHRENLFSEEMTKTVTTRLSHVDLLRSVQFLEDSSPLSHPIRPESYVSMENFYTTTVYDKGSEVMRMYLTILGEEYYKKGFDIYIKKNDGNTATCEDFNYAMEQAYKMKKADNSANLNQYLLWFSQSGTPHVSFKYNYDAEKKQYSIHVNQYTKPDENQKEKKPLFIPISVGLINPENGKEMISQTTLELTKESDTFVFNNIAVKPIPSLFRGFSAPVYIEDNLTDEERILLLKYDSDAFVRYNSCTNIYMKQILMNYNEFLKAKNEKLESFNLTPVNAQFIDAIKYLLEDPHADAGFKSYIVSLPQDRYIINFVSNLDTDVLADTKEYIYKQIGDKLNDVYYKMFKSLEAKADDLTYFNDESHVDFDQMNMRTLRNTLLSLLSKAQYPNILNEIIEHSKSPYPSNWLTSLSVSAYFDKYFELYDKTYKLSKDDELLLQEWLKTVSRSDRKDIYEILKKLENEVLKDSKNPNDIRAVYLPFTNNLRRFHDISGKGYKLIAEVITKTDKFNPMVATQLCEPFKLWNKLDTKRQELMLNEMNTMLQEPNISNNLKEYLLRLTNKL

cells = format: functional
Fatty acid synthase [1] = molecular target: T2, Fatty acid synthase (Homo sapiens, UniProt P49327); assay: FAS thioesterase domain inhibitors, dose response, biochemical, kinetic fluorescence intensity (AID 624326); format: functional;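 also: rate of fluorescence rise from hydrolysis of a fluorogenic O-methyl fluorescein ester substrate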
T2 sequence (P49327 whole entry, the tested form may be a part): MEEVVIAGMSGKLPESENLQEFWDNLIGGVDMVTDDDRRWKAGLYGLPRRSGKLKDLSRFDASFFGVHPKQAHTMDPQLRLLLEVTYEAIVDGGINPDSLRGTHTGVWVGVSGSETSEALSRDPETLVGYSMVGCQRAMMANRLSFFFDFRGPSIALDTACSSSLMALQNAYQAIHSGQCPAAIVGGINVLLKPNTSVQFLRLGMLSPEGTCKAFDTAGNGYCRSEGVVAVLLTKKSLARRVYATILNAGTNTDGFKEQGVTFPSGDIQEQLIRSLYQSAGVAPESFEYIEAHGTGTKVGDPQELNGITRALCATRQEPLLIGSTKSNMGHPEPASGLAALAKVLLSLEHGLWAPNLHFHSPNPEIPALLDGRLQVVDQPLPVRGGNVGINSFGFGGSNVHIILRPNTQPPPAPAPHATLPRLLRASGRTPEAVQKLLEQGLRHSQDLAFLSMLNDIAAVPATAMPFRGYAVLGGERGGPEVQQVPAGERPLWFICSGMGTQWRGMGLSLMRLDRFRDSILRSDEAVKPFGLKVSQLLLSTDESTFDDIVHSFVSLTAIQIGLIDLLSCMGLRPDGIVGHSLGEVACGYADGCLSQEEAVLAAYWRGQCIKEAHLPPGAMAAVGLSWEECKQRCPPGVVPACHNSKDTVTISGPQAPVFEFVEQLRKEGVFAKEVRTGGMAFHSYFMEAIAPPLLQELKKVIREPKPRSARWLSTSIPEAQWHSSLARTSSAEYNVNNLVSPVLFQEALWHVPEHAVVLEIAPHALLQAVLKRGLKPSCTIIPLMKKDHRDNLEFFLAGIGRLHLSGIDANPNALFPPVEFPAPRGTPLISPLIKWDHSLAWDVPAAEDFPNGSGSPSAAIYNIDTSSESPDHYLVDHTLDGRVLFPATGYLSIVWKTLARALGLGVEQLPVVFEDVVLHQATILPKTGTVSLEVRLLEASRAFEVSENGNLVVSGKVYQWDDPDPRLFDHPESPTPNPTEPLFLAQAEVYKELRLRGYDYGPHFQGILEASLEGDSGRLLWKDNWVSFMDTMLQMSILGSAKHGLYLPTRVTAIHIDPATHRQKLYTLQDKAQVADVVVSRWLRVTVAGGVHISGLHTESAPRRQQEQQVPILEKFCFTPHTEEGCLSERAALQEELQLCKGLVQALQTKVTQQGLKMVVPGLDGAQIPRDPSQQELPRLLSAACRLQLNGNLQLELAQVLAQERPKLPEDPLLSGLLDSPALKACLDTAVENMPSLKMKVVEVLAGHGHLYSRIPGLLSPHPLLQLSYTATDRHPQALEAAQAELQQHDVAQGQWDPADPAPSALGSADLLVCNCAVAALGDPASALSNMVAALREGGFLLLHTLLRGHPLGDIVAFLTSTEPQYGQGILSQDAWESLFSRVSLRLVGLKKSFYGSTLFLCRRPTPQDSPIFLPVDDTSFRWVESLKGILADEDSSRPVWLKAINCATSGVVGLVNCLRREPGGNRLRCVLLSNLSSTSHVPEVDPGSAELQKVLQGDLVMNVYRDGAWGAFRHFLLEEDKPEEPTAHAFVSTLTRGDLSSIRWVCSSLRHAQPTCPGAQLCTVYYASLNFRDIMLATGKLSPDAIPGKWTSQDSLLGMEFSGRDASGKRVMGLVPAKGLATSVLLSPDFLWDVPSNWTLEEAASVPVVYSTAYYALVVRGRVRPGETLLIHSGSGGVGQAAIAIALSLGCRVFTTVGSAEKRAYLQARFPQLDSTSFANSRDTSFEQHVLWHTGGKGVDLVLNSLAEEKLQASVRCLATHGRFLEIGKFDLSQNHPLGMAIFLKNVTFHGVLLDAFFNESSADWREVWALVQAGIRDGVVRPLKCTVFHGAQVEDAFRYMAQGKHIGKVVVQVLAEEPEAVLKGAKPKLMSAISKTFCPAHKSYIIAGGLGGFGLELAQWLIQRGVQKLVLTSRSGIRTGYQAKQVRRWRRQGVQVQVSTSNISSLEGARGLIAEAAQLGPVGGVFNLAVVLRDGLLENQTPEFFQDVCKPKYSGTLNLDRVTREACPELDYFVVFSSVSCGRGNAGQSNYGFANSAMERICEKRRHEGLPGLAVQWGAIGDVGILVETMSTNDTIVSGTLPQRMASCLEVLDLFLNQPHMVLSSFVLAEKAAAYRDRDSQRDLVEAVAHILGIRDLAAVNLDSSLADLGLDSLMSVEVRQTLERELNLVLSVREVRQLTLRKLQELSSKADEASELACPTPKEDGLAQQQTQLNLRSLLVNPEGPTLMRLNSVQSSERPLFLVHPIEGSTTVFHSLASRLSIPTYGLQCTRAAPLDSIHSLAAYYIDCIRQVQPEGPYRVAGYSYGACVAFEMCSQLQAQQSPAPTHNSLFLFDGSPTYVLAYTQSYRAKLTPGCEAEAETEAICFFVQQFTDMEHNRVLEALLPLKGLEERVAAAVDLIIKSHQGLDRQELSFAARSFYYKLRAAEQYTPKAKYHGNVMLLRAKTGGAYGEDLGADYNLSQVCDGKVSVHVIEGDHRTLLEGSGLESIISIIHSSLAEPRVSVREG

Fatty acid synthase [2] = molecular target: T2, Fatty acid synthase; assay: FAS thioesterase domain inhibitors, dose response, biochemical, endpoint fluorescence intensity, uHTS hits (AID 624327); format: functional;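 also: fluorescence from hydrolysis of an O-methyl fluorescein acyl ester substrate by the enzyme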
Bcl-2-related protein A1 = molecular target: T3, Bcl-2-related protein A1 (Mus musculus, UniProt Q07440); format: functional;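 also: confirmatory dose–response counterscreen on Bfl-1, used to check hits from a UBC13 polyubiquitin inhibitor campaign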
T3 sequence (Q07440 whole entry): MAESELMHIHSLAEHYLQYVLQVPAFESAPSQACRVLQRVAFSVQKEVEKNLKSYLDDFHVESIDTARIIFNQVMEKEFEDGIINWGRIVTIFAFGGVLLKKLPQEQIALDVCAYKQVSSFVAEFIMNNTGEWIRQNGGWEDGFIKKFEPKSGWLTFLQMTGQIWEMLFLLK

[3] = molecular target: T4, Ubiquitin-conjugating enzyme E2 N (Homo sapiens, UniProt P61088); format: functional
T4 sequence (P61088 whole entry): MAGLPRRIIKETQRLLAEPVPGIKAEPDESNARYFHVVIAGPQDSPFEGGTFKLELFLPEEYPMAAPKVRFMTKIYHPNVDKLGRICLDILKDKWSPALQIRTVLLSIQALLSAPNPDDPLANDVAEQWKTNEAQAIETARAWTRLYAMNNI

[4] = molecular target: T4, Ubiquitin-conjugating enzyme E2 N; format: functional; remark: listed apart in the source
[5] = inhibitors of clade B AD8 Env fusion, dose response, cell-based, cherry-pick (AID 652062); format: functional;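 also: luciferase signal from cell-cell fusion driven by HIV-1 clade B AD8 Env; potency is for inhibitors of fusion seen as a drop in luminescence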
[6] = inhibitors of HIV Env-driven cell fusion, dose response, cherry-pick (AID 652057); format: functional, cell-based
[7] = ZM109 Env clade C HIV-1 fusion inhibitors, dose response, HeLa effector, CEM target cells, luciferase, cherry-pick (AID 652058); format: functional, cell-based
Large T antigen = Large T antigen (Simian virus 40, UniProt P03070); format: functional, Betapolyomavirus macacae;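 also: Confirmatory-stage PubChem screen for compounds that inhibit SV40 T antigen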
Chain of Large T antigen (P03070 whole entry): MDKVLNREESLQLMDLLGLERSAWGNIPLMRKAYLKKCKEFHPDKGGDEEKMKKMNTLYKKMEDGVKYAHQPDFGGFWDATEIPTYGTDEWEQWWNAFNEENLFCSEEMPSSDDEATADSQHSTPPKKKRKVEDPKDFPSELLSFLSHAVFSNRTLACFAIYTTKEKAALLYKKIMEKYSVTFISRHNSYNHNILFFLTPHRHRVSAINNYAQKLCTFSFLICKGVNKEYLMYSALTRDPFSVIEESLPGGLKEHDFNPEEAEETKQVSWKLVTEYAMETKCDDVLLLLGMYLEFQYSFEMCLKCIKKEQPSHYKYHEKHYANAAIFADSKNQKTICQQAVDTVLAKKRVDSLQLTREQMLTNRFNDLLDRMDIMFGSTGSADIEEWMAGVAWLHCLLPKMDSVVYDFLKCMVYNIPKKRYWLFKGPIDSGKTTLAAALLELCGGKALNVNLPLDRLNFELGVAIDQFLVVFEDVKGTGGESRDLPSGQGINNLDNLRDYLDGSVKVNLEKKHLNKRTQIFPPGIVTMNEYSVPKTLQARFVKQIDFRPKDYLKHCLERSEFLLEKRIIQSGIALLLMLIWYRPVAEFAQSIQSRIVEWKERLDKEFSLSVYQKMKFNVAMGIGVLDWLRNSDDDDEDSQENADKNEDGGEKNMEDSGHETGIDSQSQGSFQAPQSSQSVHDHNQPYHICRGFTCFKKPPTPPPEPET

[8] = molecular target: T5, Microphthalmia-associated transcription factor (Homo sapiens, UniProt O75030); assay: TRPM1 promoter luciferase signal decrease, dose response, MITF inhibitor project, cell-based, SK-MEL-5, cherry-picked, set 3 (AID 493073); format: functional
T5 sequence (O75030 whole entry): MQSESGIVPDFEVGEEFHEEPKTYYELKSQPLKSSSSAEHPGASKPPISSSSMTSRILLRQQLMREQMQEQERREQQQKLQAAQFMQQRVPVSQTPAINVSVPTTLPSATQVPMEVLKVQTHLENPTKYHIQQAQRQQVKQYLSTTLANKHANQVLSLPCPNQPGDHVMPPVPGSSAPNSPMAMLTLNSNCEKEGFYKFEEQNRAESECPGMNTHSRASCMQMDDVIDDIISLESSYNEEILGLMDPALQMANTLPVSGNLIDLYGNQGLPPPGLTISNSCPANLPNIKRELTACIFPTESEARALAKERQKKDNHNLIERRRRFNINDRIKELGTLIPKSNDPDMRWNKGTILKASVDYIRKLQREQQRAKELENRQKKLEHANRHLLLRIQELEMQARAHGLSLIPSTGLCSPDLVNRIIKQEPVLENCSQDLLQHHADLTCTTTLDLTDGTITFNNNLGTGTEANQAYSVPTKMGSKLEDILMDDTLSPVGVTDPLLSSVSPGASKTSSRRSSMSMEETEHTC

[9] = molecular target: T6, Corticotropin-releasing factor receptor 2/Corticotropin-releasing factor-binding protein (Homo sapiens, UniProt P24387+Q13324); assay: activators of CRF receptor 2 with binding protein – uHTS hits, confirmation (AID 602473); format: functional; conditions: read-out: EC50_Mean
T6 sequence (Q13324 whole entry): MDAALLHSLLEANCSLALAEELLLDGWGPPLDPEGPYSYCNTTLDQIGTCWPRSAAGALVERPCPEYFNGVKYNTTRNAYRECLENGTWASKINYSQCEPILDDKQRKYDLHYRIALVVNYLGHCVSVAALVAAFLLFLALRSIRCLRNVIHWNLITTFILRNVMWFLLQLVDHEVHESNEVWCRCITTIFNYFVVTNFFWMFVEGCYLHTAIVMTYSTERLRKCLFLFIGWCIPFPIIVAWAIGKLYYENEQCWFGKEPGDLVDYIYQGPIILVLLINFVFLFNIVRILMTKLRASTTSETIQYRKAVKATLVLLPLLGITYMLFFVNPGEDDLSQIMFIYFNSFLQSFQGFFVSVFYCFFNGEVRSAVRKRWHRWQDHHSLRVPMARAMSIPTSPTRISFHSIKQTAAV
T6 sequence (P24387 whole entry): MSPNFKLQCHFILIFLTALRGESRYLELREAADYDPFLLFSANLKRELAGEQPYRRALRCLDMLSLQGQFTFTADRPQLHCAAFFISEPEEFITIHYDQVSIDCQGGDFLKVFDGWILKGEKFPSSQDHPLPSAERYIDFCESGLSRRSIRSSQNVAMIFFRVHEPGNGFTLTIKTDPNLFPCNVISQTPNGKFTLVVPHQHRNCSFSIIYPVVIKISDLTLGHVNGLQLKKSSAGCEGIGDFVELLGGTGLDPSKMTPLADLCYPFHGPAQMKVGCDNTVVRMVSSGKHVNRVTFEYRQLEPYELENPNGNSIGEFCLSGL

With CCCCCCCCCCCCCCCCSCC(COC)COP(=O)([O-])OCC[N+](C)(C)C (stereo unspecified) [ILMOFOSINE] the GI50 (P388/ADR) was 4.01 µM (inactive), the GI50 (SN12K1) was 11.7 µM (inactive) and the GI50 (P388) was 2.36 µM (inactive).
With CC(C)NC(=O)OCc1c(CO)c2c(n1C)-c1ccccc1CC2 the GI50 (P388/ADR) was 6.9 µM (inactive), the GI50 (SN12K1) was 18.1 µM (inactive) and the GI50 (P388) was 7.59 µM (inactive).
In the case of O=C1CCC(=O)N1c1nc2n(n1)C(c1ccccc1)C=C(c1ccc(Br)cc1)N2 (stereo unspecified), the IC50 (Aminopeptidase N) is reported as 69.7 µM (active).
In the case of N[C@@H](Cc1ccc(N(CCCl)CCCl)cc1)C(=O)O [MELPHALAN HYDROCHLORIDE], the GI50 (P388/ADR) is reported as 5.71 µM (inactive), the GI50 (SN12K1) is reported as 26.5 µM (inactive) and the GI50 (P388) is reported as 2.39 µM (inactive).
For O=NN(CCCl)C(=O)N[C@H]1CC[C@@H](O)CC1, the GI50 (P388/ADR) was 3.41 µM (inactive), the GI50 (SN12K1) was 28.2 µM (inactive) and the GI50 (P388) was 3.76 µM (inactive).
With O=C1OC(/C(=C\Nc2cc(Cl)ccc2O)[N+](=O)[O-])c2ccccc21 (stereo unspecified) the IC50 (cells) was 11.7 µM (active) and the IC50 (Aminopeptidase N) was 48.8 µM (active).
In the case of N#Cc1cc2sc3nnc(-c4ccncc4)n3c2cc1C#N, the IC50 (Fatty acid synthase [1]) is reported as 4.69 µM (active) and the IC50 (Fatty acid synthase [2]) is reported as 3.82 µM (active).
In the case of O=C(CSc1nc2ccsc2c(=O)n1Cc1ccccc1)NCc1ccco1, the IC50 (Bcl-2-related protein A1) is reported as > 20 µM (inactive), the IC50 [3] is reported as > 20 µM (inactive) and the IC50 [4] is reported as 18.1 µM (active).
In the case of CCN1CCCC(NCc2c3ccccc3c(CNC3CCCN(CC)C3)c3ccccc23)C1 (stereo unspecified), the GI50 (P388/ADR) is reported as 15.7 µM (inactive), the GI50 (SN12K1) is reported as 8.32 µM (inactive) and the GI50 (P388) is reported as 2.64 µM (inactive).
In the case of Cc1ccc(C2COc3cc(O)c(O)cc3C2)cc1 (stereo unspecified), the GI50 (P388/ADR) is reported as 1.79 µM (inactive), the GI50 (SN12K1) is reported as 13.2 µM (inactive) and the GI50 (P388) is reported as 1.75 µM (inactive).
For CN1CCN(c2ccc([N+](=O)[O-])cc2/C=N/NC(=O)c2ccc(F)cc2)CC1, the IC50 (Fatty acid synthase [1]) was 16 µM (active) and the IC50 (Fatty acid synthase [2]) was 11.2 µM (active).
In the case of Cc1ccc(S(=O)(=O)N(C)C[C@@H]2Oc3ncc(/C=C/c4ccccc4)cc3C(=O)N([C@H](C)CO)C[C@@H]2C)cc1, the AC50 [5] is reported as 3.55 µM (active), the AC50 [6] is reported as 0.577 µM (active) and the AC50 [7] is reported as 2.57 µM (active).
In the case of CCN(CC)S(=O)(=O)c1ccc(C(=O)Oc2coc(CSc3nc(C)cc(C)n3)cc2=O)cc1, the IC50 (Large T antigen) is reported as 40.4 µM (active).
In the case of Cc1nc(NS(=O)(=O)c2ccccc2)sc1C(=O)N/N=C/c1ccccc1, the IC50 (Aminopeptidase N) is reported as 50.1 µM (active).
With O=C(C[C@H]1C=C[C@@H](NC(=O)Nc2ccccc2F)[C@@H](CO)O1)NCc1ccc(Cl)cc1 the AC50 [5] was 9.13 µM (active) and the AC50 [6] was 3.07 µM (active).
For CC(C)(C)c1ccc(C(=O)NCCC(=O)Nc2cc(Cl)ccc2N2CCOCC2)cc1, the IC50 (Fatty acid synthase [1]) was 4.54 µM (active) and the IC50 (Fatty acid synthase [2]) was 9.59 µM (active).
For CCN(CC)CCNC(=O)c1ccc(NC(=O)c2cccc(S(=O)(=O)N3c4ccccc4CC3C)c2)cc1 (stereo unspecified), the AC50 [8] was 10.5 µM (active).
For CCCNC(=O)/C(=C/c1cn(S(=O)(=O)N(C)C)c2ccccc12)NC(=O)c1ccc(OC)cc1, the IC50 (Fatty acid synthase [1]) was 6.75 µM (active), the EC50 [9] was 4.01 µM (active) and the IC50 (Fatty acid synthase [2]) was 4.86 µM (active).
